The test system of this experiment is Helicoverpa armigera larvae (third instar). The experiment is described as follows: Bioassay of meroterpenoid using H. armigera larvae (cotton leaf dip feeding). Format: in vivo. The note with it: for Mortality (%) / Survival (%): treated cotton leaves, recorded up to 6 days. From the text:
The cotton Bollworm, Helicoverpa armigera is considered as one of the major threats to present day intensive agriculture. […] Cotton leaves were surface sterilized with 0.5% sodium hypochlorite, rinsed in sterile water and shade dried. The leaves were dipped in respective concentration of the insecticide for 30 seconds and then they were drained and dried at room temperature. The turgidity was maintained by surrounding the petiole with cotton wool saturated with water. The petioles of the leaves with cotton swab were kept immersed in water and were used control. The entire setup was kept enclosed in mylar film cage and Helicoverpa armigera larvae (third instar) of 30-40 milligrams weight were allowed to feed. Mortality rate was recorded at 24 hours intervals up to 6 days.

Regarding `COc1ccc(-c2cc3c(c(=O)o2)C[C@@]2(O)[C@@]4(C)C(=O)[C@@]5(OC)C(=O)O[C@]4(CC[C@@]2(C)O3)C5(C)C)cc1` [Terreulactone A, terreulactone A], the “Mortality (%)” value is reported as 52.5% (2.5 μg terreulactone A), 62.5% (5.0 μg terreulactone A) and 82.5% (10 μg terreulactone A). In addition, the “Survival (%)” value runs as follows: (2.5 μg terreulactone A) 47.5%; (5.0 μg terreulactone A) 37.5%; (10 μg terreulactone A) 17.5%. Where the note is “larval pests fed on treated plant or plant parts”, the “mortality rate of the larval pests (in words)” value is “increased the mortality rate”.

The values are drawn from patent publication US8383128B2, “Method of protecting plant(s) and a process thereof” (priority 2008, dated 2013).
